Each structure is given as a SMILES string.

In data set [1] the target is T1, catalytic domain of human stromelysin (Hsln) (Homo sapiens, UniProt P08254).
T1 construct: The catalytic domain of human stromelysin (Hsln) was obtained by expression and purification of a C-terminally truncated prostromelysin-1; made in house; host or cells: E. coli BL21
Description: Fluorometric MCA-peptide hydrolysis assay, stromelysin (Hsln). It counts as biochemical. The note with it: apparent Ki; 10 μM MCA peptide substrate, 37° C., pH 7.5; read-out: Hsln (Ki,app). Summed up: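 APMA-activated E. coli–expressed catalytic domain, with 10 μM MCA-Pro-Leu-Gly-Leu-DPA-Ala-Arg-NH2 at 37 °C. Buffer was pH 7.5 Tricine with NaCl, CaCl2, zinc acetate and 2% final DMSO; fluorescence read at ex 328/em 393 nm over 60 min. Ki,app from steady-state rates fitted to competitive or Morrison tight-binding equations.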

Data set [2] addresses T2, fibroblast collagenase-1 catalytic domain (HFC) (Homo sapiens, UniProt P03956).
T2 construct: The catalytic domain of human collagenase-1 was expressed as a fusion protein with ubiquitin in E. coli; ubiquitin (cleaved yes); made in house; host or cells: E. coli
T2 sequence (P03956 100-269 limits assumed): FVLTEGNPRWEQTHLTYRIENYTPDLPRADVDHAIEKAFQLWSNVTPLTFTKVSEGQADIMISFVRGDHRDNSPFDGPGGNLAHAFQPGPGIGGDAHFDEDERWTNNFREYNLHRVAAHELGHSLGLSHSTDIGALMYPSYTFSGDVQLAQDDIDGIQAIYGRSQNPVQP
As to the kind of experiment: Fluorometric MCA-peptide hydrolysis assay, fibroblast collagenase-1 (HFC). It counts as biochemical. The note with it: apparent Ki; 10 μM MCA peptide substrate, 37° C., pH 7.5; read-out: HFC (Ki,app). Summed up:
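Human collagenase-1 catalytic domain, expressed in E. coli as ubiquitin fusion, was assayed with 10 μM MCA-Pro-Leu-Gly-Leu-DPA-Ala-Arg-NH2 at 37 °C in Tricine pH 7.5, 2% DMSO, over 60 min (ex 328/em 393 nm). Ki,app came from steady-state rates fitted to competitive or Morrison tight-binding equations.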

For data set [3], the target named is T3, human progelatinase A (GelA), catalytic and fibronectin-like portion (Homo sapiens, UniProt P08253).
T3 construct: The catalytic and fibronectin-like portion of human progelatinase A (GelA) was expressed as a fusion protein with ubiquitin; ubiquitin; made in house; host or cells: E. coli
T3 sequence (P08253 110-465 limits assumed): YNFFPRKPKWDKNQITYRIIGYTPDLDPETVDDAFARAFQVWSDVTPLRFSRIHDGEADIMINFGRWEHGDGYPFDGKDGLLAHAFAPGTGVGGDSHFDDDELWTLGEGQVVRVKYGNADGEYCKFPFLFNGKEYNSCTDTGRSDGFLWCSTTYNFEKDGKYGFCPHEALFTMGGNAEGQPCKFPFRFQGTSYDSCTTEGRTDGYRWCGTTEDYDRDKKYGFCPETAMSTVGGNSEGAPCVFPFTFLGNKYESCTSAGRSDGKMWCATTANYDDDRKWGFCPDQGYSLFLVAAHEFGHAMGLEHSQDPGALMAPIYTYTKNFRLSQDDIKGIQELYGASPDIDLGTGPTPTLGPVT
Description: Fluorometric MCA-peptide hydrolysis assay, gelatinase A (GelA). In kind it is biochemical. Particulars: apparent Ki; 10 μM MCA peptide substrate, 37° C., pH 7.5. Summed up:
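E. coli-expressed ubiquitin fusion of human proGelA catalytic plus fibronectin-like domains, autoactivated; 10 μM MCA-Pro-Leu-Gly-Leu-DPA-Ala-Arg-NH2, pH 7.5 Tricine/NaCl/CaCl2/Zn buffer, 2% DMSO, 37° C, 60 min. Fluorescence 328/393 nm; steady-state rates fitted to competitive inhibition or Morrison tight-binding equation giving Ki,app (≈Ki since [S]<<Km).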

In data set [4] the target is T4, human collagenase-3 (Coll3) (Homo sapiens, UniProt P45452).
T4 construct: the catalytic domain was liberated by treatment with 2 mM APMA at room temperature overnight; ubiquitin (N, cleaved yes); made in house; host or cells: E. coli
As to the kind of experiment: Fluorometric MCA-peptide hydrolysis assay, collagenase-3 (Coll3). It counts as biochemical. Particulars: apparent Ki; 10 μM MCA peptide substrate, 37° C., pH 7.5; read-out: Coll3 (Ki,app).

A short description of a further data set: LogP. It counts as physicochemical.

T1 sequence (P08254 100-272 limits assumed): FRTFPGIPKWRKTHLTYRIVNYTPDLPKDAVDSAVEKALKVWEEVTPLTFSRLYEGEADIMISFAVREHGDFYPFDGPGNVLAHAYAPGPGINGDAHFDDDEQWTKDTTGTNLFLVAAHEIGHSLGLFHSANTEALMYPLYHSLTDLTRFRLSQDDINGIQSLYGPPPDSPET

Regarding `CNC(=O)[C@@H](NC(=O)[C@@H](CC(=O)O)n1ccc(-c2ccc(-c3ccc(C#N)cc3)cc2)c1)C(C)(C)C` [Example 5(c), 3(R)-[3-(4′-Cyanobiphenyl-4-yl)-1H-pyrrol-1-yl]-N-[2,2-dimethyl-1(S)-(methylcarbamoyl)propyl]succinamic Acid], the Ki in data set [1] worked out at 1.5 nM; in data set [2] it was 1500 nM; in data set [4] it was 0.049 nM. The GelA (Ki,app) in data set [3] stood at 0.041 nM. For the same compound, the log partition coefficient (logP) in “LogP” stood at 3.41.

The term logP denotes a log measure of how a compound divides between an organic and an aqueous phase. Low readings indicate lower lipophilicity, high ones higher lipophilicity.

For the origin of these results see US6495699B2, “Metalloproteinase inhibitors, pharmaceutical compositions containing them, and their use” (Agouron Pharmaceuticals Inc., priority 1996, dated 2002).
